Results taken from patent US9771369B2, “Compounds and methods for kinase modulation, and indications therefor” (Plexxikon Inc., priority 2014, dated 2017).

What was measured:
c-Kit kinase = c-Kit kinase (Homo sapiens (Human), UniProt P10721); test: c-Kit biochemical assay (AlphaScreen kinase activity)
Summary of the method: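 AlphaScreen: c-Kit phosphorylates biotin-(E4Y)3 (100 nM) at 10 μM ATP, pH 7.2 HEPES buffer with Mg/Mn, 5% DMSO, 1 h room temperature; streptavidin donor and PY30 acceptor beads detect product. Second format: 100 μM ATP, 30 nM biotin-(E4Y)10, pH 7.5. IC50 from 8-point 1:3 dilution curves.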

[1] = tested on: BaF3-FL KIT D816V or BaF3-FL KIT V560G/D816V cell line; test: Cell-based assays of c-Kit mutant kinase activity (cell proliferation, ATPlite); settings: at least one of the c-kit cell assays of Example 7
Summary of the method: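 BaF3 cells dependent on transfected full-length human KIT D816V or V560G/D816V (pCI-Neo, CMV promoter) were seeded at 1×10^4 cells/well and exposed to 8-point 1:3 dilutions from 10 μM top (0.2% DMSO) for three days at 37° C. ATPlite luminescence gave cell number; IC50 from concentration-response.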

Sequence of c-Kit kinase (P10721 26-976): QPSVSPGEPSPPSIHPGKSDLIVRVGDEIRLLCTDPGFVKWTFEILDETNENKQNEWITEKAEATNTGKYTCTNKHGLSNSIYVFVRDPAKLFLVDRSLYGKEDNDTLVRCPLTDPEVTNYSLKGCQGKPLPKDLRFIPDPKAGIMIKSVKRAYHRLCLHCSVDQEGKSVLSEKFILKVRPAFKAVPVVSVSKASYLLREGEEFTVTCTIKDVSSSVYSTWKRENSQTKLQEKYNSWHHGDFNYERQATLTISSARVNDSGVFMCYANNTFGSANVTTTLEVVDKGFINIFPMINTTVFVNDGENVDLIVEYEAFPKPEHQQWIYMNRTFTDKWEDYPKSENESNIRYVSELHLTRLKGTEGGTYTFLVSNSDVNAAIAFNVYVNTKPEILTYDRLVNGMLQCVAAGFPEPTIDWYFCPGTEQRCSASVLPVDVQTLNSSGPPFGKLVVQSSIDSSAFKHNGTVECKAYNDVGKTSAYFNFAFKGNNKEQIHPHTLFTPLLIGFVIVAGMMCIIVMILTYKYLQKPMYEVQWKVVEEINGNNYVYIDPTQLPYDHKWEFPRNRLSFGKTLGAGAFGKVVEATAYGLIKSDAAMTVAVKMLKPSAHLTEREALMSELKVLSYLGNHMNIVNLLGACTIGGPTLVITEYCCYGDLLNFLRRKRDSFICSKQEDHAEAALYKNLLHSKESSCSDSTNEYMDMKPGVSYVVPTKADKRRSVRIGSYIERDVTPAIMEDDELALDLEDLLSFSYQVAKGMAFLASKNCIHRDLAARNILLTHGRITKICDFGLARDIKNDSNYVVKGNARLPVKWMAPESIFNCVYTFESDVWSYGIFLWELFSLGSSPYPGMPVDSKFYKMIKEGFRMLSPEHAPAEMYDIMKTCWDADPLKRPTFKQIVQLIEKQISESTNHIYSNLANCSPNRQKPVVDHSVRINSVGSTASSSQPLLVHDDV

SMILES	IC50 (c-Kit kinase)	IC50 [1]
COc1cc(-c2cc3c(N4CCC(c5nc(C)c(-c6cccc(OC(F)(F)F)c6)[nH]5)CC4)ncnc3[nH]2)ccn1 [P-3014, 6-(2-methoxy-4-pyridyl)-4-[4-[4-methyl-5-[3-(trifluoromethoxy)phenyl]-1H-imidazol-2-yl]-1-piperidyl]-7H-pyrrolo[2,3-d]pyrimidine]	1 to 10 µM	< 10 µM
COc1ccc(-c2[nH]c(C3CCN(c4ncnc5[nH]c(-c6ccc(C#N)cc6)cc45)CC3)nc2C)cc1 [P-3015, 4-[4-[4-[5-(4-methoxyphenyl)-4-methyl-1H-imidazol-2-yl]-1-piperidyl]-7H-pyrrolo[2,3-d]pyrimidin-6-yl]benzonitrile]	0.0001 to 1 µM	< 10 µM
Cc1nc(C2CCN(c3ncnc4[nH]c(-c5ccc(C#N)cc5)cc34)CC2)[nH]c1-c1cccc(F)c1 [P-3016, 4-[4-[4-[5-(3-fluorophenyl)-4-methyl-1H-imidazol-2-yl]-1-piperidyl]-7H-pyrrolo[2,3-d]pyrimidin-6-yl]benzonitrile]	1 to 10 µM	< 10 µM
COc1ccc(-c2[nH]c(C3CCN(c4ncnc5[nH]c(-c6ccnc(OC)c6)cc45)CC3)nc2C)cc1 [P-3017, 4-[4-[5-(4-methoxyphenyl)-4-methyl-1H-imidazol-2-yl]-1-piperidyl]-6-(2-methoxy-4-pyridyl)-7H-pyrrolo[2,3-d]pyrimidine]	0.0001 to 1 µM	< 10 µM
COc1ccc(-c2[nH]c(C3CCN(c4ncnc5[nH]c(-c6ccc(C#N)cc6)cc45)CC3)nc2C)cc1F [P-3018, 4-[4-[4-[5-(3-fluoro-4-methoxy-phenyl)-4-methyl-1H-imidazol-2-yl]-1-piperidyl]-7H-pyrrolo[2,3-d]pyrimidin-6-yl]benzonitrile]	1 to 10 µM	< 10 µM
CCOc1ccc(-c2[nH]c(C3(C)CCN(c4ncnc5[nH]c(-c6ccc(OC)nc6)cc45)CC3)nc2C)cc1 [P-3171, 4-[4-[5-(4-ethoxyphenyl)-4-methyl-1H-imidazol-2-yl]-4-methyl-1-piperidyl]-6-(6-methoxy-3-pyridyl)-7H-pyrrolo[2,3-d]pyrimidine]	0.0001 to 1 µM	< 10 µM
COc1ccc(-c2[nH]c(C3(C)CCN(c4ncnc5[nH]c(-c6ccc(C#N)cc6)cc45)CC3)nc2C)cn1 [P-3172, 4-[4-[4-[5-(6-methoxy-3-pyridyl)-4-methyl-1H-imidazol-2-yl]-4-methyl-1-piperidyl]-7H-pyrrolo[2,3-d]pyrimidin-6-yl]benzonitrile]	0.0001 to 1 µM	< 10 µM
COc1ncc(-c2[nH]c(C3CCN(c4ncnc5[nH]c(-c6ccc(C#N)cc6)cc45)CC3)nc2C)cc1F [P-3173, 4-[4-[4-[5-(5-fluoro-6-methoxy-3-pyridyl)-4-methyl-1H-imidazol-2-yl]-1-piperidyl]-7H-pyrrolo[2,3-d]pyrimidin-6-yl]benzonitrile]	0.0001 to 1 µM	< 10 µM
Cc1nc(C2(C)CCN(c3ncnc4[nH]c(-c5cnn(C(F)F)c5)cc34)CC2)[nH]c1-c1ccc(Cl)cc1 [P-3175, 4-[4-[5-(4-chlorophenyl)-4-methyl-1H-imidazol-2-yl]-4-methyl-1-piperidyl]-6-[1-(difluoromethyl)pyrazol-4-yl]-7H-pyrrolo[2,3-d]pyrimidine]	0.0001 to 1 µM	< 10 µM
COc1ccc(-c2cc3c(N4CCC(C)(c5nc(C)c(-c6ccc(Cl)cc6)[nH]5)CC4)ncnc3[nH]2)cn1 [P-3176, 4-[4-[5-(4-chlorophenyl)-4-methyl-1H-imidazol-2-yl]-4-methyl-1-piperidyl]-6-(6-methoxy-3-pyridyl)-7H-pyrrolo[2,3-d]pyrimidine]	0.0001 to 1 µM	< 10 µM
Cc1nc(C2(C)CCN(c3ncnc4[nH]c(-c5ccc(C#N)cc5)cc34)CC2)[nH]c1-c1ccc(C(F)(F)F)cc1 [P-3177, 4-[4-[4-methyl-4-[4-methyl-5-[4-(trifluoromethyl)phenyl]-1H-imidazol-2-yl]-1-piperidyl]-7H-pyrrolo[2,3-d]pyrimidin-6-yl]benzonitrile]	0.0001 to 1 µM	< 10 µM
COc1ccc(-c2cc3c(N4CCC(C)(c5nc(C)c(-c6ccc(C(F)(F)F)cc6)[nH]5)CC4)ncnc3[nH]2)cn1 [P-3178, 6-(6-methoxy-3-pyridyl)-4-[4-methyl-4-[4-methyl-5-[4-(trifluoromethyl)phenyl]-1H-imidazol-2-yl]-1-piperidyl]-7H-pyrrolo[2,3-d]pyrimidine]	0.0001 to 1 µM	< 10 µM
Cc1nc(C2(C)CCN(c3ncnc4[nH]c(-c5cnn(C(F)F)c5)cc34)CC2)[nH]c1-c1ccc(C(F)(F)F)cc1 [P-3179, 6-[1-(difluoromethyl)pyrazol-4-yl]-4-[4-methyl-4-[4-methyl-5-[4-(trifluoromethyl)phenyl]-1H-imidazol-2-yl]-1-piperidyl]-7H-pyrrolo[2,3-d]pyrimidine]	0.0001 to 1 µM	< 10 µM
Cc1nc(C2(C)CCN(c3ncnc4[nH]c(-c5ccc(C#N)cc5)cc34)CC2)[nH]c1-c1ccc(Cl)cc1 [P-3180, 4-[4-[4-[5-(4-chlorophenyl)-4-methyl-1H-imidazol-2-yl]-4-methyl-1-piperidyl]-7H-pyrrolo[2,3-d]pyrimidin-6-yl]benzonitrile]	0.0001 to 1 µM	< 10 µM
COc1ncc(-c2[nH]c(C3(C)CCN(c4ncnc5[nH]c(-c6ccc(C#N)cc6)cc45)CC3)nc2C)cc1F [P-3181, 4-[4-[4-[5-(5-fluoro-6-methoxy-3-pyridyl)-4-methyl-1H-imidazol-2-yl]-4-methyl-1-piperidyl]-7H-pyrrolo[2,3-d]pyrimidin-6-yl]benzonitrile]	0.0001 to 1 µM	< 10 µM
COc1ccc(-c2[nH]c(C3(C)CCN(c4ncnc5[nH]c(-c6cnn(C(F)F)c6)cc45)CC3)nc2C)cn1 [P-3182, 6-[1-(difluoromethyl)pyrazol-4-yl]-4-[4-[5-(6-methoxy-3-pyridyl)-4-methyl-1H-imidazol-2-yl]-4-methyl-1-piperidyl]-7H-pyrrolo[2,3-d]pyrimidine]	0.0001 to 1 µM	< 10 µM
COc1ccc(-c2[nH]c(C3(C)CCN(c4ncnc5[nH]c(C)cc45)CC3)nc2C)cc1F [P-3183, 4-[4-[5-(3-fluoro-4-methoxy-phenyl)-4-methyl-1H-imidazol-2-yl]-4-methyl-1-piperidyl]-6-methyl-7H-pyrrolo[2,3-d]pyrimidine]	0.0001 to 1 µM	< 10 µM
Cc1cc2c(N3CCC(C)(c4nc(C)c(-c5ccc(C(F)F)cc5)[nH]4)CC3)ncnc2[nH]1 [P-3184, 4-[4-[5-[4-(difluoromethyl)phenyl]-4-methyl-1H-imidazol-2-yl]-4-methyl-1-piperidyl]-6-methyl-7H-pyrrolo[2,3-d]pyrimidine]	0.0001 to 1 µM	< 10 µM
COc1ncc(-c2nc(C3(C)CCN(c4ncnc5[nH]c(C)cc45)CC3)[nH]c2C)cc1F [P-3185, 4-[4-[4-(5-fluoro-6-methoxy-3-pyridyl)-5-methyl-1H-imidazol-2-yl]-4-methyl-1-piperidyl]-6-methyl-7H-pyrrolo[2,3-d]pyrimidine]	1 to 10 µM	< 10 µM
COc1ccc(-c2nc(C3(C)CCN(c4ncnc5[nH]c(C)cc45)CC3)[nH]c2C)cn1 [P-3186, 4-[4-[4-(6-methoxy-3-pyridyl)-5-methyl-1H-imidazol-2-yl]-4-methyl-1-piperidyl]-6-methyl-7H-pyrrolo[2,3-d]pyrimidine]	1 to 10 µM	< 10 µM
COc1ccc(-c2[nH]c(C3(C)CCN(c4ncnc5[nH]c(-c6cnn(C(F)F)c6)cc45)CC3)nc2C)cc1F [P-3187, 6-[1-(difluoromethyl)pyrazol-4-yl]-4-[4-[5-(3-fluoro-4-methoxy-phenyl)-4-methyl-1H-imidazol-2-yl]-4-methyl-1-piperidyl]-7H-pyrrolo[2,3-d]pyrimidine]	0.0001 to 1 µM	< 10 µM
COc1ccc(-c2cc3c(N4CCC(C)(c5nc(C)c(-c6ccc(OC)c(F)c6)[nH]5)CC4)ncnc3[nH]2)cn1 [P-3188, 4-[4-[5-(3-fluoro-4-methoxy-phenyl)-4-methyl-1H-imidazol-2-yl]-4-methyl-1-piperidyl]-6-(6-methoxy-3-pyridyl)-7H-pyrrolo[2,3-d]pyrimidine]	0.0001 to 1 µM	< 10 µM
Cc1nc(C2(C)CCN(c3ncnc4[nH]c(-c5cnn(C(F)F)c5)cc34)CC2)[nH]c1-c1ccc(C(F)F)cc1 [P-3189, 4-[4-[5-[4-(difluoromethyl)phenyl]-4-methyl-1H-imidazol-2-yl]-4-methyl-1-piperidyl]-6-[1-(difluoromethyl)pyrazol-4-yl]-7H-pyrrolo[2,3-d]pyrimidine]	0.0001 to 1 µM	< 10 µM
COc1ccc(-c2cc3c(N4CCC(C)(c5nc(C)c(-c6ccc(C(F)F)cc6)[nH]5)CC4)ncnc3[nH]2)cn1 [P-3190, 4-[4-[5-[4-(difluoromethyl)phenyl]-4-methyl-1H-imidazol-2-yl]-4-methyl-1-piperidyl]-6-(6-methoxy-3-pyridyl)-7H-pyrrolo[2,3-d]pyrimidine]	0.0001 to 1 µM	< 10 µM
Cc1cc2c(N3CCC(C)(c4nc(C)c(-c5cccc(OC(F)F)c5)[nH]4)CC3)ncnc2[nH]1 [P-3191, 4-[4-[5-[3-(difluoromethoxy)phenyl]-4-methyl-1H-imidazol-2-yl]-4-methyl-1-piperidyl]-6-methyl-7H-pyrrolo[2,3-d]pyrimidine]	1 to 10 µM	< 10 µM
Cc1nc(C2(C)CCN(c3ncnc4[nH]c(-c5cnn(C(F)F)c5)cc34)CC2)[nH]c1-c1cccc(OC(F)F)c1 [P-3192, 4-[4-[5-[3-(difluoromethoxy)phenyl]-4-methyl-1H-imidazol-2-yl]-4-methyl-1-piperidyl]-6-[1-(difluoromethyl)pyrazol-4-yl]-7H-pyrrolo[2,3-d]pyrimidine]	0.0001 to 1 µM	< 10 µM
